Experimental data as given in the supplement of paper PMC10627819.

Legend:
Experiment in all cases: fitness (endpoint OD595 vs no drug) (fraction); higher = more growth
S. aureus Newman = conditions: one replicate
Summary of the method: (§1)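 In 384-well plates at 37 °C, cultures began at OD595 0.01 in 30 µl, with 55 µl used for S. pneumoniae. OD595 readings every 30 min for 14 h were corrected by the first reading. Fitness divides the stationary-phase transition optical density by the robust mean of no-drug control wells. The result is capped at 1.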

B. subtilis 168 = test system: B. subtilis 168
Summary of the method: as §1

S. pneumoniae D39V = test system: S. pneumoniae D39V
Summary of the method: as §1
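Note: OD595 on entry to stationary phase over no-drug wells; at most 1.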

In the case of `O=C(O)[C@H]1/C(=C/CO)O[C@@H]2CC(=O)N21` [Clavulanic acid] + Cc1cc(NS(=O)(=O)c2ccc(N)cc2)no1 [Sulfamethoxazol], the fitness (S. aureus Newman; first compound 0.03125 µg/mL, partner 1 µg/mL) is reported as 0.994, the fitness (S. aureus Newman; first compound 0.03125 µg/mL, partner 2 µg/mL) is reported as 0.974 and the fitness (S. aureus Newman; first compound 0.03125 µg/mL, partner 4 µg/mL) is reported as 0.983. The fitness (S. aureus Newman; first compound 0.0625 µg/mL, partner 1 µg/mL) was no less than 1, the fitness (S. aureus Newman; first compound 0.0625 µg/mL, partner 2 µg/mL) was no less than 1 and the fitness (S. aureus Newman; first compound 0.0625 µg/mL, partner 4 µg/mL) was no less than 1. For the same compound, the fitness (S. aureus Newman; first compound 0.125 µg/mL, partner 1 µg/mL) was 0.951, the fitness (S. aureus Newman; first compound 0.125 µg/mL, partner 2 µg/mL) was 0.929 and the fitness (S. aureus Newman; first compound 0.125 µg/mL, partner 4 µg/mL) was 0.929. The fitness (B. subtilis 168; first compound 1.5 µg/mL, partner 0.5 µg/mL, one replicate) was 0.974, the fitness (B. subtilis 168; first compound 1.5 µg/mL, partner 1 µg/mL) was 0.853 and the fitness (B. subtilis 168; first compound 1.5 µg/mL, partner 2 µg/mL) was 0.883. It also gave a fitness (B. subtilis 168; first compound 1.5 µg/mL, partner 4 µg/mL) of 0.93, a fitness (B. subtilis 168; first compound 3 µg/mL, partner 0.5 µg/mL, one replicate) of 0.903 and a fitness (B. subtilis 168; first compound 3 µg/mL, partner 1 µg/mL) of 0.816. It also gave a fitness (B. subtilis 168; first compound 3 µg/mL, partner 2 µg/mL) of 0.839, a fitness (B. subtilis 168; first compound 3 µg/mL, partner 4 µg/mL) of 0.943 and a fitness (B. subtilis 168; first compound 6 µg/mL, partner 0.5 µg/mL, one replicate) of 0.952. For the same compound, the fitness (B. subtilis 168; first compound 6 µg/mL, partner 1 µg/mL) was 0.704, the fitness (B. subtilis 168; first compound 6 µg/mL, partner 2 µg/mL) was 0.733 and the fitness (B. subtilis 168; first compound 6 µg/mL, partner 4 µg/mL) was 0.798. It also gave a fitness (S. pneumoniae D39V; first compound 0.5 µg/mL, partner 1 µg/mL) of 0.985, a fitness (S. pneumoniae D39V; first compound 0.5 µg/mL, partner 2 µg/mL) of 0.982 and a fitness (S. pneumoniae D39V; first compound 0.5 µg/mL, partner 4 µg/mL) of 0.949. For the same compound, the fitness (S. pneumoniae D39V; first compound 1 µg/mL, partner 1 µg/mL) was 0.914, the fitness (S. pneumoniae D39V; first compound 1 µg/mL, partner 2 µg/mL) was 0.93 and the fitness (S. pneumoniae D39V; first compound 1 µg/mL, partner 4 µg/mL) was 0.856. The fitness (S. pneumoniae D39V; first compound 2 µg/mL, partner 1 µg/mL) was 0.836, the fitness (S. pneumoniae D39V; first compound 2 µg/mL, partner 2 µg/mL) was 0.904 and the fitness (S. pneumoniae D39V; first compound 2 µg/mL, partner 4 µg/mL) was 0.786.

`O=C(O)[C@H]1/C(=C/CO)O[C@@H]2CC(=O)N21` [Clavulanic acid] + Cc1ncc([N+](=O)[O-])n1CCO [Metronidazole] was tested, and the fitness (S. aureus Newman; first compound 0.03125 µg/mL, partner 0.625 µg/mL) was 0.976, the fitness (S. aureus Newman; first compound 0.03125 µg/mL, partner 1.25 µg/mL) was 0.96 and the fitness (S. aureus Newman; first compound 0.03125 µg/mL, partner 2.5 µg/mL) was 0.996. The fitness (S. aureus Newman; first compound 0.0625 µg/mL, partner 0.625 µg/mL) was 0.94, the fitness (S. aureus Newman; first compound 0.0625 µg/mL, partner 1.25 µg/mL) was no less than 1 and the fitness (S. aureus Newman; first compound 0.0625 µg/mL, partner 2.5 µg/mL) was no less than 1. The fitness (S. aureus Newman; first compound 0.125 µg/mL, partner 0.625 µg/mL) was 0.85, the fitness (S. aureus Newman; first compound 0.125 µg/mL, partner 1.25 µg/mL) was 0.891 and the fitness (S. aureus Newman; first compound 0.125 µg/mL, partner 2.5 µg/mL) was 0.852. The fitness (B. subtilis 168; first compound 1.5 µg/mL, partner 0.625 µg/mL) was 0.93, the fitness (B. subtilis 168; first compound 1.5 µg/mL, partner 1.25 µg/mL) was 0.97 and the fitness (B. subtilis 168; first compound 1.5 µg/mL, partner 2.5 µg/mL) was 0.976. The fitness (B. subtilis 168; first compound 3 µg/mL, partner 0.625 µg/mL) was 0.909, the fitness (B. subtilis 168; first compound 3 µg/mL, partner 1.25 µg/mL) was 0.89 and the fitness (B. subtilis 168; first compound 3 µg/mL, partner 2.5 µg/mL) was 0.886. The fitness (B. subtilis 168; first compound 6 µg/mL, partner 0.625 µg/mL) was 0.794, the fitness (B. subtilis 168; first compound 6 µg/mL, partner 1.25 µg/mL) was 0.762 and the fitness (B. subtilis 168; first compound 6 µg/mL, partner 2.5 µg/mL) was 0.772. For the same compound, the fitness (S. pneumoniae D39V; first compound 0.5 µg/mL, partner 1.073 µg/mL) was 0.946, the fitness (S. pneumoniae D39V; first compound 0.5 µg/mL, partner 1.25 µg/mL) was no less than 1 and the fitness (S. pneumoniae D39V; first compound 0.5 µg/mL, partner 2.145 µg/mL) was 0.946. For the same compound, the fitness (S. pneumoniae D39V; first compound 0.5 µg/mL, partner 2.5 µg/mL) was no less than 1, the fitness (S. pneumoniae D39V; first compound 0.5 µg/mL, partner 4.29 µg/mL) was 0.858 and the fitness (S. pneumoniae D39V; first compound 0.5 µg/mL, partner 5 µg/mL) was no less than 1. The fitness (S. pneumoniae D39V; first compound 1 µg/mL, partner 1.073 µg/mL) was 0.931, the fitness (S. pneumoniae D39V; first compound 1 µg/mL, partner 1.25 µg/mL) was 0.957 and the fitness (S. pneumoniae D39V; first compound 1 µg/mL, partner 2.145 µg/mL) was 0.926. The fitness (S. pneumoniae D39V; first compound 1 µg/mL, partner 2.5 µg/mL) was 0.971, the fitness (S. pneumoniae D39V; first compound 1 µg/mL, partner 4.29 µg/mL) was 0.89 and the fitness (S. pneumoniae D39V; first compound 1 µg/mL, partner 5 µg/mL) was 0.959. For the same compound, the fitness (S. pneumoniae D39V; first compound 2 µg/mL, partner 1.073 µg/mL) was 0.839, the fitness (S. pneumoniae D39V; first compound 2 µg/mL, partner 1.25 µg/mL) was 0.801 and the fitness (S. pneumoniae D39V; first compound 2 µg/mL, partner 2.145 µg/mL) was 0.779. The fitness (S. pneumoniae D39V; first compound 2 µg/mL, partner 2.5 µg/mL) was 0.828, the fitness (S. pneumoniae D39V; first compound 2 µg/mL, partner 4.29 µg/mL) was 0.829 and the fitness (S. pneumoniae D39V; first compound 2 µg/mL, partner 5 µg/mL) was 0.805.

Compound `O=C(O)[C@H]1/C(=C/CO)O[C@@H]2CC(=O)N21` [Clavulanic acid] + Cc1onc(-c2ccccc2)c1C(=O)N[C@@H]1C(=O)N2[C@@H]1SC(C)(C)[C@@H]2C(=O)O [Oxacillin] has a fitness (S. aureus Newman; first compound 0.03125 µg/mL, partner 0.0156 µg/mL) of 0.861, a fitness (S. aureus Newman; first compound 0.03125 µg/mL, partner 0.0312 µg/mL) of 0.801 and a fitness (S. aureus Newman; first compound 0.03125 µg/mL, partner 0.0625 µg/mL) of 0.628. The fitness (S. aureus Newman; first compound 0.0625 µg/mL, partner 0.0156 µg/mL) was 0.785, the fitness (S. aureus Newman; first compound 0.0625 µg/mL, partner 0.0312 µg/mL) was 0.784 and the fitness (S. aureus Newman; first compound 0.0625 µg/mL, partner 0.0625 µg/mL) was 0.564. The fitness (S. aureus Newman; first compound 0.125 µg/mL, partner 0.0156 µg/mL) was 0.749, the fitness (S. aureus Newman; first compound 0.125 µg/mL, partner 0.0312 µg/mL) was 0.697 and the fitness (S. aureus Newman; first compound 0.125 µg/mL, partner 0.0625 µg/mL) was 0.584. The fitness (B. subtilis 168; first compound 1.5 µg/mL, partner 0.002 µg/mL) was 0.917, the fitness (B. subtilis 168; first compound 1.5 µg/mL, partner 0.004 µg/mL) was 0.956 and the fitness (B. subtilis 168; first compound 1.5 µg/mL, partner 0.0078 µg/mL, one replicate) was 0.929. The fitness (B. subtilis 168; first compound 1.5 µg/mL, partner 0.008 µg/mL) was 0.962, the fitness (B. subtilis 168; first compound 1.5 µg/mL, partner 0.0155 µg/mL, one replicate) was 0.903 and the fitness (B. subtilis 168; first compound 1.5 µg/mL, partner 0.031 µg/mL, one replicate) was 0.926. For the same compound, the fitness (B. subtilis 168; first compound 1.5 µg/mL, partner 0.075 µg/mL, one replicate) was 0.188, the fitness (B. subtilis 168; first compound 1.5 µg/mL, partner 0.15 µg/mL, one replicate) was 0.058 and the fitness (B. subtilis 168; first compound 1.5 µg/mL, partner 0.3 µg/mL, one replicate) was 0.0448. For the same compound, the fitness (B. subtilis 168; first compound 3 µg/mL, partner 0.002 µg/mL) was 0.901, the fitness (B. subtilis 168; first compound 3 µg/mL, partner 0.004 µg/mL) was 0.899 and the fitness (B. subtilis 168; first compound 3 µg/mL, partner 0.0078 µg/mL, one replicate) was 0.958. The fitness (B. subtilis 168; first compound 3 µg/mL, partner 0.008 µg/mL) was 0.866, the fitness (B. subtilis 168; first compound 3 µg/mL, partner 0.0155 µg/mL, one replicate) was 0.937 and the fitness (B. subtilis 168; first compound 3 µg/mL, partner 0.031 µg/mL, one replicate) was 0.973. It also gave a fitness (B. subtilis 168; first compound 3 µg/mL, partner 0.075 µg/mL, one replicate) of 0.0579, a fitness (B. subtilis 168; first compound 3 µg/mL, partner 0.15 µg/mL, one replicate) of 0.0634 and a fitness (B. subtilis 168; first compound 3 µg/mL, partner 0.3 µg/mL, one replicate) of 0.0505. The fitness (B. subtilis 168; first compound 6 µg/mL, partner 0.002 µg/mL) was 0.827, the fitness (B. subtilis 168; first compound 6 µg/mL, partner 0.004 µg/mL) was 0.788 and the fitness (B. subtilis 168; first compound 6 µg/mL, partner 0.0078 µg/mL, one replicate) was 0.89. For the same compound, the fitness (B. subtilis 168; first compound 6 µg/mL, partner 0.008 µg/mL) was 0.762, the fitness (B. subtilis 168; first compound 6 µg/mL, partner 0.0155 µg/mL, one replicate) was 0.861 and the fitness (B. subtilis 168; first compound 6 µg/mL, partner 0.031 µg/mL, one replicate) was 0.806. For the same compound, the fitness (B. subtilis 168; first compound 6 µg/mL, partner 0.075 µg/mL, one replicate) was 0.061, the fitness (B. subtilis 168; first compound 6 µg/mL, partner 0.15 µg/mL, one replicate) was 0.058 and the fitness (B. subtilis 168; first compound 6 µg/mL, partner 0.3 µg/mL, one replicate) was 0.0518. It also gave a fitness (S. pneumoniae D39V; first compound 0.5 µg/mL, partner 0.005 µg/mL) of 0.994, a fitness (S. pneumoniae D39V; first compound 0.5 µg/mL, partner 0.01 µg/mL) of 0.953 and a fitness (S. pneumoniae D39V; first compound 0.5 µg/mL, partner 0.02 µg/mL) of 0.943. For the same compound, the fitness (S. pneumoniae D39V; first compound 0.5 µg/mL, partner 0.04 µg/mL) was 0.401, the fitness (S. pneumoniae D39V; first compound 1 µg/mL, partner 0.005 µg/mL) was 0.952 and the fitness (S. pneumoniae D39V; first compound 1 µg/mL, partner 0.01 µg/mL) was 0.888. The fitness (S. pneumoniae D39V; first compound 1 µg/mL, partner 0.02 µg/mL) was 0.837, the fitness (S. pneumoniae D39V; first compound 1 µg/mL, partner 0.04 µg/mL) was 0.228 and the fitness (S. pneumoniae D39V; first compound 2 µg/mL, partner 0.005 µg/mL) was 0.846. It also gave a fitness (S. pneumoniae D39V; first compound 2 µg/mL, partner 0.01 µg/mL) of 0.749 and a fitness (S. pneumoniae D39V; first compound 2 µg/mL, partner 0.04 µg/mL) of 0.0623.
